Measurements from US6458773B1, “Nucleoside with anti-hepatitis B virus activity” (Emory University, priority 1998, dated 2002).
pEC50: −log10 of the molar value. Where two headings read alike, the source gives them in different places.

Experiments:
HBV = assay: Anti-HBV activity in transfected 2.2.15 cells (HBV DNA replication intermediates, blot hybridization); format: cell-based, hepatitis B virus; conditions: read-out: EC50 (μM) R.I.
Method: The antiviral evaluations were performed on two separate passages of cells, two cultures per passage (4 cultures total). All wells, in all plates, were seeded at the same density and at the same time.
Due to the inherent variations in the levels of both intracellular and extracellular HBV DNA, only depressions greater than 3.0-fold (for HBV virion DNA) or 2.5-fold (for HBV DNA replication intermediates) from the average levels for these HBV DNA forms in untreated cells are generally considered to be statistically significant [P<0.05] (Korba and Gerin, Antiviral Res. 19: 55-70, 1992). The levels of integrated HBV DNA in each cellular DNA preparation (which remain constant on a per cell basis in these experiments) were used to calculate the levels of intracellular HBV DNA forms, thereby eliminating technical variations inherent in the blot hybridization assays.
Typical values for extracellular HBV virion DNA in untreated cells range from 50 to 150 pg/ml culture medium (average of approximately 76 pg/ml). Intracellular HBV DNA replication intermediates in untreated cells range from 50 to 100 pg/ug cell DNA (average approximately 74 pg/ug cell DNA). In general, depressions in the levels of intracellular HBV DNA due to treatment with antiviral compounds are less pronounced, and occur more slowly, than depressions in the levels of HBV virion DNA.
For reference, the manner in which the hybridization analyses were performed for these experiments results in an equivalence of approximately 1.0 pg intracellular HBV DNA/ug cellular DNA to 2-3 genomic copies per cell and 1.0 pg of extracellular HBV DNA/ml culture medium to 3×10^5 viral particles/ml.
The test compounds were used in the form of stock solutions in DMSO (frozen on dry ice). Daily aliquots of the test samples were made and frozen at −20° C. so that each individual aliquot would be subjected to a single freeze-thaw cycle. The daily test aliquots were thawed, suspended into culture medium at room temperature and immediately added to the cell cultures.
The ability of the active compounds to inhibit the growth of virus in 2.2.15 cell cultures (HepG2 cells transformed with hepatitis virion) was evaluated.

Normal Hep G2 cells [1] = assay: Cytotoxicity by uptake of neutral red dye; format: cell-based
Method: (§1) Toxicity analyses were performed in order to assess whether any observed antiviral effects were due to a general effect on cell viability. This can be assessed by the uptake of neutral red dye, a standard and widely used assay for cell viability in a variety of virus-host systems, including HSV (herpes simplex virus) and HIV.
(§2) Toxicity analyses were performed in 96-well flat bottomed tissue culture plates. Cells for the toxicity analyses were cultured and treated with test compounds with the same schedule as used for the antiviral evaluations. Each compound was tested at 4 concentrations, each in triplicate cultures. Uptake of neutral red dye was used to determine the relative level of toxicity. The absorbance of internalized dye at […] (A510) was used for the quantitative analysis. Values are presented as a percentage of the average A510 values (±standard deviations) in 9 separate cultures of untreated cells maintained on the same 96-well plate as the test compounds.

CFU-GM = assay: Human bone marrow clonogenic assay, CFU-GM; format: cell-based; conditions: effect on cell growth
BFU-E = assay: Human bone marrow clonogenic assay, BFU-E; format: cell-based; conditions: effect on cell growth
Normal Hep G2 cells [2] = conditions: neutral red dye uptake; typically observed in these assays (Korba and Gerin 1992); cited from earlier work
[3] = Cytotoxicity by uptake of neutral red dye; format: cell-based; conditions: human, Normal Hep G2 cells
Method: as §1, §2

[4] = Transfected 2.2.15 cells, HBV DNA replication intermediates (R.I.)

**Q.** Which EC50 (HBV; [4]) does the source give for `Nc1ccn([C@@H]2CS[C@H](CO)O2)c(=O)n1` (single isomer, unassigned) [Lamivudine (3TC), (−)-enantiomer of cis-2-hydroxymethyl-5-(cytosin-1-yl)-1,3-oxathiolane] here?
**A.** Its EC50 is 0.03 µM.

**Q.** Which results are given for `Nc1nc(=O)n([C@H]2CC[C@@H](CO)O2)cc1F` [Compound L-5-FddC]?
**A.** EC50 (HBV; [4]): 0.05 µM; CC50 (Normal Hep G2 cells [1]): > 200 µM; pEC50 (CFU-GM): 5.92; pEC50 (BFU-E): 5.74

**Q.** With `Nc1ccn([C@H]2CC[C@@H](CO)O2)c(=O)n1` [D-ddC, 2′,3′-dideoxycytidine] as the compound, how does the pEC50 (CFU-GM) read?
**A.** The pEC50 was 6.15.

**Q.** And the pEC50 (BFU-E)?
**A.** Its pEC50 is 7.30.

**Q.** And the “concentration giving a 2-fold reduction in dye uptake versus untreated cultures” value (Normal Hep G2 cells [2])?
**A.** The value was 150 to 190 µM.

**Q.** What does the source list for `[N-]=[N+]=N[C@H]1C[C@H](CO)O[C@@H]1n1cc(F)c(N)nc1=O` [L-2-azido-5-FddC, 1-(2,3-Dideoxy-2-azido-β-L-erythro-pentofuranosyl)-5-fluorocytosine]?
**A.** EC50 (HBV; Hepatitis B virus): 0.1 µM; CC50 [3]: > 200 µM; pEC50 (CFU-GM): < 5.00; pEC50 (BFU-E): < 5.00

**Q.** Which EC50 (HBV; Hepatitis B virus, Transfected 2.2.15 cells, HBV DNA replication intermediates (R.I.)) does the source give for `[N-]=[N+]=NC1C[C@@H](n2cc(F)c(N)nc2=O)O[C@H]1CO` (stereo partly drawn) [L-3-azido-5-FddC, β-L-(3′-azido)-2′,3′-dideoxy-5-fluorocytidine] here?
**A.** Its EC50 is 0.01 µM.

**Q.** What about the CC50 [3] of the same compound?
**A.** The CC50 was greater than 200 µM.

**Q.** And the pEC50 (CFU-GM)?
**A.** The pEC50 was 5.00.

**Q.** What about the pEC50 (BFU-E) of the same compound?
**A.** Its pEC50 is 5.00.

**Q.** Which results are given for `Cc1cn([C@H]2C[C@H](N=[N+]=[N-])[C@@H](CO)O2)c(=O)[nH]c1=O` [Zidovudine (AZT), 3′-azido-3′-deoxythymidine]?
**A.** pEC50 (CFU-GM): 5.72; pEC50 (BFU-E): 6.22
